Assays:
[1] = set-up: method as in PMID 27079428; conditions: cited from earlier work
[2] = Human liver microsome stability assay; format: in vitro ADME; conditions: human liver microsomes, 1 μM, 37 °C; CLint = k/P

[2H]C([2H])([2H])Oc1cc2c(cc1OC([2H])([2H])[2H])C1CC(=O)C(CC(C)C)CN1CC2 (stereo not drawn) [deutetrabenazine]
t1/2 [1]: 8.6 h

C[C@]12CC[C@H]3[C@@H](CCC4=CC(=O)CC[C@@]43C)[C@@H]1CC[C@@H]2O [Testosterone, testosterone, reference compound]
CLint (intrinsic clearance) [2]: 0.0727 mL/min/mg Protein

COc1cc2c(cc1OC)C1CC(=O)C(CC(C)C)CN1CC2 (stereo not drawn) [tetrabenazine]
t1/2 [1]: 4.8 h

Source: article PMC6150239 (Molecules : A Journal of Synthetic Chemistry and Natural …, 2017)
